This assay has as its target T1, USP7 (Homo sapiens, UniProt Q93009).
T1 construct: The USP7 construct was PCR amplified and cloned into a pFLAG-CMV-6a vector (Sigma-Aldrich) with an N-terminal FLAG tag; made in house; host or cells: HEK293T
Nature of the assay: USP7 biochemical IC50 assay (fluorescence polarisation, TAMRA labelled peptide linked to ubiquitin via an iso-peptide bond). The following applies: 30 min pre-incubation of enzyme and compound, read after 2 hr incubation at room temperature, read-out: IC50 range. In short, it runs like this: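 Fluorescence polarisation at 540 nm excitation/590 nm emission, read immediately and after 2 hr at room temperature, following addition of 50 nM TAMRA-labelled iso-peptide ubiquitin substrate.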
T1 sequence (Q93009 whole entry): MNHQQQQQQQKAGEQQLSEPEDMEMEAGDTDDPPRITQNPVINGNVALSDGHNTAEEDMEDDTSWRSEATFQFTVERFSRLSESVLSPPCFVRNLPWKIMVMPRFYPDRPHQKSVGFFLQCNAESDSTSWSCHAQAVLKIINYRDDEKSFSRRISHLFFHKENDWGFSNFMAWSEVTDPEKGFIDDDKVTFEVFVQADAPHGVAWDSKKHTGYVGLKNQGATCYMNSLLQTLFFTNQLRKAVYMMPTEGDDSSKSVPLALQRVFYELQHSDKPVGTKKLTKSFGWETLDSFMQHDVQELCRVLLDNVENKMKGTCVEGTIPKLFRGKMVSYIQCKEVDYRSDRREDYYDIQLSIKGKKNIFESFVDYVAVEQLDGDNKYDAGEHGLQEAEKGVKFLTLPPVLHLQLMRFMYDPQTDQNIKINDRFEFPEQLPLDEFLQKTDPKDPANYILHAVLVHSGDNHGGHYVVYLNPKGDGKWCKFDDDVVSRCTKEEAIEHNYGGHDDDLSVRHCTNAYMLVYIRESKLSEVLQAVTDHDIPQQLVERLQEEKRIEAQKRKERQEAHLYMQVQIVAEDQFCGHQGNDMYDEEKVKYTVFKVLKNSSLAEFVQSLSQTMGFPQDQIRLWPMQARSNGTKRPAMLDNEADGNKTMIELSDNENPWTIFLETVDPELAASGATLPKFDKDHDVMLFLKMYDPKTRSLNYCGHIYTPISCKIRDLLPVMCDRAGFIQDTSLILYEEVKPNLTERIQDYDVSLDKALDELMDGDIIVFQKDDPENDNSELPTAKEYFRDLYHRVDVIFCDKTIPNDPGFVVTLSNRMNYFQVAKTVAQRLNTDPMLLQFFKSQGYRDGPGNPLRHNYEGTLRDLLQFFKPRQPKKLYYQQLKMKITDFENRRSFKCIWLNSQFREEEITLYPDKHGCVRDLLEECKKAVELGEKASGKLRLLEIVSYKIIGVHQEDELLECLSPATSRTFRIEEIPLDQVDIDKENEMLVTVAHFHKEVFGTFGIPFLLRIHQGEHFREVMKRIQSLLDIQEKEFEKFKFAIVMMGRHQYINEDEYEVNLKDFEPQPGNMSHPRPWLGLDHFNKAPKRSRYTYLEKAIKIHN
Take `N#CN1Cc2nc(-c3cccnc3)nc(N3CCCC3)c2C1` [Example 137, 2-(pyridin-3-yl)-4-(pyrrolidin-1-yl)-5,7-dihydro-6H-pyrrolo[3,4-d]pyrimidine-6-carbonitrile]: the half-inhibitory concentration (IC50) fell in the range of 1 to 10 µM. With `N#CN1Cc2nc(-c3ccccc3C(N)=O)nc(N3CCc4ccccc4C3)c2C1` [Example 138, 2-(6-cyano-4-(3,4-dihydroisoquinolin-2(1H)-yl)-6,7-dihydro-5H-pyrrolo[3,4-d]pyrimidin-2-yl)benzamide], the IC50 was 1 to 10 µM.

Turning to `Cc1[nH]ncc1-c1nc2c(c(N3CCc4ccccc4C3)n1)CN(C#N)C2` [Example 139, 4-(3,4-dihydroisoquinolin-2(1H)-yl)-2-(5-methyl-1H-pyrazol-4-yl)-5,7-dihydro-6H-pyrrolo[3,4-d]pyrimidine-6-carbonitrile], the IC50 is 1 to 10 µM. Consider `COc1ccccc1-c1nc2c(c(N3CCc4ccccc4C3)n1)CN(C#N)C2` [Example 140, 4-(3,4-dihydroisoquinolin-2(1H)-yl)-2-(2-methoxyphenyl)-5,7-dihydro-6H-pyrrolo[3,4-d]pyrimidine-6-carbonitrile], for which the half-maximal inhibitory concentration (IC50) was in the range of 1 to 10 µM. The value for `N#Cc1cccc(-c2nc3c(c(N4CCc5ccccc5C4)n2)CN(C#N)C3)c1` [Example 141, 2-(3-cyanophenyl)-4-(3,4-dihydroisoquinolin-2(1H)-yl)-5,7-dihydro-6H-pyrrolo[3,4-d]pyrimidine-6-carbonitrile] was 1 to 10 µM. In the case of `Cn1cc(-c2nc3c(c(N4CCc5ccccc5C4)n2)CN(C#N)C3)cn1` [Example 142, 4-(3,4-dihydroisoquinolin-2(1H)-yl)-2-(1-methyl-1H-pyrazol-4-yl)-5,7-dihydro-6H-pyrrolo[3,4-d]pyrimidine-6-carbonitrile], the IC50 is 1 to 10 µM. Consider `Cc1ccccc1-c1nc2c(c(N3CCCC3C(N)=O)n1)CN(C#N)C2` (centres unmarked) [Example 143, 1-(6-cyano-2-(o-tolyl)-6,7-dihydro-5H-pyrrolo[3,4-d]pyrimidin-4-yl)pyrrolidine-2-carboxamide], for which the IC50 lay within 10 to 30 µM. With `Cc1[nH]ncc1-c1nc2c(c(N3CCCC3C(N)=O)n1)CN(C#N)C2` (centres unmarked) [Example 144, 1-(6-cyano-2-(5-methyl-1H-pyrazol-4-yl)-6,7-dihydro-5H-pyrrolo[3,4-d]pyrimidin-4-yl)pyrrolidine-2-carboxamide], the IC50 was 10 to 30 µM. With `N#CN1Cc2nc(-c3cn[nH]c3)nc(N3CCc4ccccc4C3)c2C1` [Example 145, 4-(3,4-dihydroisoquinolin-2(1H)-yl)-2-(1H-pyrazol-4-yl)-5,7-dihydro-6H-pyrrolo[3,4-d]pyrimidine-6-carbonitrile], the IC50 fell in the range of 1 to 10 µM.

On to `COCCn1cc(-c2nc3c(c(N4CCc5ccccc5C4)n2)CN(C#N)C3)cn1` [Example 146], for which the IC50 was under 1 µM. As to `Cc1[nH]ncc1-c1nc2c(c(N3CCc4cccnc4C3)n1)CN(C#N)C2` [Example 147, 4-(5,8-dihydro-1,7-naphthyridin-7(6H)-yl)-2-(5-methyl-1H-pyrazol-4-yl)-5,7-dihydro-6H-pyrrolo[3,4-d]pyrimidine-6-carbonitrile], the IC50 was 1 to 10 µM.

With `CC(=O)Nc1nc2c(c(N3CCCC3)n1)CN(C#N)C2` [Example 148, N-(6-cyano-4-(pyrrolidin-1-yl)-6,7-dihydro-5H-pyrrolo[3,4-d]pyrimidin-2-yl)acetamide], the IC50 lay within 10 to 30 µM. `N#CN1Cc2nc(Cl)nc(-c3ccc(F)cc3)c2C1` [Example 149, 2-chloro-4-(4-fluorophenyl)-5,7-dihydro-6H-pyrrolo[3,4-d]pyrimidine-6-carbonitrile]: the IC50 was in the range of 10 to 30 µM. With `N#CN1Cc2nc(Cl)nc(-c3ccccc3F)c2C1` [Example 150, 2-chloro-4-(2-fluorophenyl)-5,7-dihydro-6H-pyrrolo[3,4-d]pyrimidine-6-carbonitrile], the IC50 was 30 to 100 µM. As to `Cc1nc2c(c(-c3ccc(F)cc3)n1)CN(C#N)C2` [Example 151, 4-(4-fluorophenyl)-2-methyl-5,7-dihydro-6H-pyrrolo[3,4-d]pyrimidine-6-carbonitrile], the IC50 fell in the range of 1 to 10 µM. Turning to `N#CN1Cc2cccc(-c3ccccc3C(=O)N3CCCC3)c2C1` [Example 155, 4-(2-(pyrrolidine-1-carbonyl)phenyl)isoindoline-2-carbonitrile], the IC50 was in the range of 10 to 30 µM. Under `Cc1cc(-c2cccc3c2CN(C#N)C3)c(C(N)=O)cc1C#N` [Example 156, 5-cyano-2-(2-cyanoisoindolin-4-yl)-4-methylbenzamide] stands 1 to 10 µM; under `N#CN1Cc2cccc(-c3ccccc3C(N)=O)c2C1` [Example 157, 2-(2-cyanoisoindolin-4-yl)benzamide], 1 to 10 µM; under `N#CN1Cc2cccc(-c3ccc(F)cc3C(N)=O)c2C1` [Example 158, 2-(2-cyanoisoindolin-4-yl)-5-fluorobenzamide], 1 to 10 µM. Take `CC(=O)c1ccccc1-c1cccc2c1CN(C#N)C2` [Example 159, 4-(2-acetylphenyl)isoindoline-2-carbonitrile]: the IC50 lay within 1 to 10 µM. Consider `CNS(=O)(=O)c1ccccc1-c1cccc2c1CN(C#N)C2` [Example 160, 2-(2-cyanoisoindolin-4-yl)-N-methylbenzenesulfonamide], for which the IC50 lay within 1 to 10 µM. Under `N#CN1Cc2cccc(-c3ccccc3S(N)(=O)=O)c2C1` [Example 161, 2-(2-cyanoisoindolin-4-yl)benzenesulfonamide] stands 1 to 10 µM; under `CS(=O)(=O)c1ccccc1-c1cccc2c1CN(C#N)C2` [Example 162, 4-(2-(methylsulfonyl)phenyl)isoindoline-2-carbonitrile], 1 to 10 µM; under `CN1CCC[C@@H](C(=O)Nc2cc3c(c(-c4ccncc4)c2)CN(C#N)C3)C1` [Example 163, (R)-N-(2-cyano-7-(pyridin-4-yl)isoindolin-5-yl)-1-methylpiperidine-3-carboxamide], 1 to 10 µM. For the compound `CN1CCC[C@@H](C(=O)Nc2cc3c(c(-c4cccnc4)c2)CN(C#N)C3)C1` [Example 164, (R)-N-(2-cyano-7-(pyridin-3-yl)isoindolin-5-yl)-1-methylpiperidine-3-carboxamide], the IC50 was 1 to 10 µM. On to `N#CN1Cc2cccc(-c3cccc4c3NC(=O)C4)c2C1` [Example 165, 4-(2-oxoindolin-7-yl)isoindoline-2-carbonitrile], for which the IC50 was 1 to 10 µM.

As to `N#Cc1ccccc1-c1cccc2c1CN(C#N)C2` [Example 166, 4-(2-cyanophenyl)isoindoline-2-carbonitrile], the IC50 lay within 1 to 10 µM. The value for `N#Cc1cc(F)ccc1-c1cccc2c1CN(C#N)C2` [Example 167, 4-(2-cyano-4-fluorophenyl)isoindoline-2-carbonitrile] was 1 to 10 µM; that for `N#Cc1cccc(F)c1-c1cccc2c1CN(C#N)C2` [Example 168, 4-(2-cyano-6-fluorophenyl)isoindoline-2-carbonitrile] was 1 to 10 µM. With `N#Cc1cc(Cl)ccc1-c1cccc2c1CN(C#N)C2` [Example 169, 4-(4-chloro-2-cyanophenyl)isoindoline-2-carbonitrile], the half-inhibitory concentration (IC50) lay in the range of 1 to 10 µM. As for `COc1cccc(-c2cccc3c2CN(C#N)C3)c1C#N` [Example 170, 4-(2-cyano-3-methoxyphenyl)isoindoline-2-carbonitrile], the IC50 was in the range of 1 to 10 µM. With `COc1ccc(-c2cccc3c2CN(C#N)C3)c(C#N)c1` [Example 171, 4-(2-cyano-4-methoxyphenyl)isoindoline-2-carbonitrile], the IC50 lay in the range of 1 to 10 µM.

The values are drawn from patent US10683269B2 (MISSION THERAPEUTICS LIMITED, priority 2016, dated 2020).
